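Grown in 96-well plates, cells were treated for 48 hours with each compound at five concentrations. Insufficient inhibition: endpoint recorded as highest concentration tested. GI50: concentration for 50% inhibition of growth.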 The source made the active and inactive calls. No stated cut-off is given here; in the data, active = GI50 up to about 1.1 µM and inactive = higher.

Some test systems named below: RPMI-8226; HCT-15; LOX IMVI; A549; NCI-H23; M14; Malme-3M; SF-295; T47D; SK-OV-3; SR; EKVX; SN12C; CAKI-1; ACHN; SK-MEL-2; TK-10; HT-29; A498.
Common to all, as to test: growth of human tumour cells (NCI), 48 h

Regarding `CCCCC1C=Cn2c(=O)oc3c(OC(C)C)c(C)c(O)c1c32` (stereo not drawn), the GI50 with RPMI-8226 is 1.42 µM (inactive); with HCT-15 it was 0.357 µM; with LOX IMVI, 0.566 µM (active); in the experiment on A549, 1.84 µM (inactive); in the experiment on NCI-H23 it was 1.48 µM (inactive); with M14, 1.19 µM (inactive). The GI50 is 1.47 µM (inactive) with Malme-3M; 0.982 µM (active) in the experiment on SF-295; 1.85 µM (inactive) in the experiment with T47D; 3.14 µM (inactive) with SK-OV-3; 0.548 µM (active) with SR; 2.48 µM (inactive) in the experiment with EKVX. Also, the GI50 is 1.37 µM (inactive) with SN12C; 0.409 µM (active) with CAKI-1; 0.413 µM (active) in the experiment on ACHN; 1.66 µM (inactive) in the experiment on SK-MEL-2; 5.52 µM (inactive) in the experiment on TK-10; 2.7 µM (inactive) in the experiment on HT-29. In addition, the GI50 in the experiment with A498 was 0.0423 µM (active).
Turning to `CC/C(=C\c1ccc(Cl)c(Cl)c1)[N+](=O)[O-]`, the GI50 in the experiment with RPMI-8226 was 1.92 µM (inactive); in the experiment on HCT-15, 1.66 µM; in the experiment on LOX IMVI, 0.405 µM (active); in the experiment with A549, 2.1 µM (inactive); with NCI-H23, 2.34 µM (inactive); in the experiment on M14 it was 1.45 µM (inactive). Further, the GI50 with Malme-3M is 1.92 µM (inactive); in the experiment on SF-295, 2.04 µM (inactive); in the experiment with T47D, 2.93 µM (inactive); with SR it was 0.948 µM (active); in the experiment on EKVX, 2.76 µM (inactive); in the experiment on SN12C it was 2.09 µM (inactive). Besides, the GI50 with ACHN is 1.75 µM (inactive); in the experiment on SK-MEL-2, 2.28 µM (inactive); with TK-10 it was 1.94 µM (inactive); in the experiment with HT-29, 3.4 µM (inactive); in the experiment on A498, 8.18 µM (inactive).
As for `COC(=O)c1ccc(Nc2nc3[nH]cnc3c(=O)[nH]2)cc1`, the GI50 is 47.5 µM (inactive) in the experiment on RPMI-8226; above 100 µM in the experiment with HCT-15; 95.5 µM (inactive) in the experiment with LOX IMVI; > 100 µM (inactive) in the experiment with A549; > 100 µM (inactive) in the experiment with NCI-H23; 59.2 µM (inactive) in the experiment on M14. Besides, the GI50 in the experiment with Malme-3M was > 100 µM (inactive); with SF-295, > 100 µM (inactive); in the experiment with T47D it was 69 µM (inactive); in the experiment on SK-OV-3 it was 89.3 µM (inactive); in the experiment on SR, 65.9 µM (inactive); with EKVX, > 100 µM (inactive). Besides, the GI50 in the experiment with SN12C was > 100 µM (inactive); with CAKI-1, > 100 µM (inactive); with ACHN, > 100 µM (inactive); in the experiment on SK-MEL-2 it was > 100 µM (inactive); with TK-10, > 100 µM (inactive); in the experiment on HT-29, 58.7 µM (inactive). Moreover, in the experiment with A498, the GI50 is > 100 µM (inactive).
Turning to `CCCCCCCCCCCCOCC1(COCCCCCCCCCCCC)COC(c2ccc(N)cc2)OC1`, the GI50 in the experiment with RPMI-8226 is > 100 µM (inactive); in the experiment on HCT-15, above 100 µM; in the experiment with LOX IMVI it was > 100 µM (inactive); with A549, > 100 µM (inactive); in the experiment with NCI-H23 it was > 100 µM (inactive); with M14, > 100 µM (inactive). For the same molecule, the GI50 in the experiment with Malme-3M, in the experiment on SF-295, in the experiment with T47D, in the experiment on SK-OV-3, in the experiment on SR and in the experiment on EKVX was > 100 µM (inactive) in each case. Besides, the GI50 in the experiment on SN12C, in the experiment with CAKI-1, in the experiment on ACHN, in the experiment with SK-MEL-2, in the experiment with TK-10 and in the experiment with HT-29 was > 100 µM (inactive) throughout. In addition, the GI50 with A498 was > 100 µM (inactive).
Take `CN(C)CCN1C(=O)N(CCN(C)C)c2c3cc(O)ccc3nc3c([N+](=O)[O-])ccc1c23`: the GI50 was 14.2 µM (inactive) in the experiment with RPMI-8226; 6.52 µM in the experiment on HCT-15; 10.7 µM (inactive) in the experiment with LOX IMVI; 9.12 µM (inactive) in the experiment with A549; 17.2 µM (inactive) in the experiment on NCI-H23; 15.8 µM (inactive) in the experiment with Malme-3M. Besides, the GI50 in the experiment on T47D was 18.4 µM (inactive); in the experiment with SR, 0.245 µM (active); in the experiment with SN12C, 9.2 µM (inactive); with CAKI-1, 13.1 µM (inactive); in the experiment on ACHN, 6.22 µM (inactive); with SK-MEL-2 it was 24.8 µM (inactive). In addition, the GI50 was 10.6 µM (inactive) in the experiment with TK-10, 6.08 µM (inactive) in the experiment with HT-29 and 15.7 µM (inactive) in the experiment with A498.
As to `CC1(O)CC(C(F)(F)F)(C(F)(F)F)OC1=O` (stereo not drawn), the GI50 in the experiment with RPMI-8226 is > 10 µM (inactive); with HCT-15 it was above 10 µM; in the experiment on LOX IMVI, > 10 µM (inactive); in the experiment on A549, > 10 µM (inactive); with NCI-H23, > 10 µM (inactive); in the experiment with M14 it was > 10 µM (inactive). Moreover, the GI50 in the experiment with Malme-3M, in the experiment with SF-295, with T47D, in the experiment on SK-OV-3, in the experiment with SR and with EKVX was > 10 µM (inactive) each time. The GI50 in the experiment with SN12C, in the experiment on CAKI-1, in the experiment with ACHN, with TK-10, with HT-29 and in the experiment with A498 was > 10 µM (inactive) in each case.
Turning to `O=C(O)Cn1ncn(NC(=O)Cc2ccccc2)c1=S`, the GI50 in the experiment on RPMI-8226 is > 10 µM (inactive); in the experiment on HCT-15, above 10 µM; in the experiment with LOX IMVI, > 10 µM (inactive); in the experiment on A549, > 10 µM (inactive); in the experiment with NCI-H23, > 10 µM (inactive); in the experiment on M14 it was > 10 µM (inactive). Further, the GI50 in the experiment on Malme-3M, in the experiment with SF-295, in the experiment on T47D, with SK-OV-3, in the experiment with SR and in the experiment on EKVX was > 10 µM (inactive) in each case. Moreover, the GI50 in the experiment with SN12C, in the experiment with CAKI-1, in the experiment with ACHN, in the experiment with TK-10, with HT-29 and in the experiment with A498 was > 10 µM (inactive) each time.
For `C=CC1ON(Cc2ccccc2)CCc2cc(OC)c(OC)cc21` (stereo not drawn), the GI50 is 30.3 µM (inactive) with RPMI-8226; 48.2 µM with HCT-15; 43.3 µM (inactive) with LOX IMVI; 44.2 µM (inactive) with A549; 53.3 µM (inactive) with NCI-H23; 49.7 µM (inactive) in the experiment on M14. Moreover, the GI50 is 19.2 µM (inactive) with Malme-3M; 31.7 µM (inactive) in the experiment with SF-295; 27.7 µM (inactive) in the experiment on T47D; 56.5 µM (inactive) with SK-OV-3; 25.7 µM (inactive) in the experiment on SR; 63.4 µM (inactive) with EKVX. In addition, the GI50 is 77.4 µM (inactive) in the experiment on SN12C; 70.5 µM (inactive) in the experiment with CAKI-1; > 100 µM (inactive) in the experiment on ACHN; > 100 µM (inactive) with TK-10; 42.4 µM (inactive) in the experiment on HT-29; 15.2 µM (inactive) in the experiment on A498.

The values are drawn from ChEMBL document CHEMBL1201862, “PubChem BioAssay data set” (2004).
